In patent publication US9162219B2, “Fenton reaction catalyst produced using reducing organic substance as raw material” (INCORPORATED ADMINISTRATIVE AGENCY, NATIONAL AGRICULTURE …, priority 2011, dated 2015):

Tests used:
[1] = Ability to catalyze Fenton reaction, luminol reaction observed by eye; settings: reaction product solution added to 100 ml luminol solution (1 g/L luminol, 4 g/L sodium hydroxide, 0.3% hydrogen peroxide)
Source text: With respect to the reaction products of the samples, which were confirmed to have iron reducing effects in Example 1, and iron, the fact that the reaction products have abilities to catalyze the Fenton reaction was examined by a luminol reaction.
It should be noted that the luminol reaction means a luminescence reaction caused by oxidizing luminol by generation of hydroxyl radicals.
Small amounts of the aqueous solutions containing the reaction products prepared in Example 1 were each added to 100 ml of a luminol solution (1 g/L luminol, 4 g/L sodium hydroxide, 0.3% hydrogen peroxide), and the presence or absence of luminescence was observed.

[2] = Luminol reaction, amount of luminescence (hydroxyl radicals generated) measured with AB-2270 Luminescencer Octa
Method: In the step of preparing the reaction products of the samples and iron, the ability to catalyze the Fenton reaction was examined with different mixing ratios of the samples to iron.
The above-mentioned samples were each mixed with iron (III) chloride (1 mM FeCl3) at different mixing ratios as shown in FIG. 2 to prepare reaction products in the same manner as in Example 1.
(§1) Then, for each of the aqueous solutions containing the reaction products, the amount of luminescence (amount of hydroxyl radicals generated) provided by the luminol reaction was measured using the AB-2270 Luminescencer Octa to determine the ability of the reaction products to catalyze the Fenton reaction. […]
The above-mentioned samples were added to different concentrations of iron (III) chloride (0.02, 0.1, 0.2, 1, 5, and 10 mM) at the optimum mixing ratios determined in Example 3 (ascorbic acid: 0.5 mM, squeezed grape juice: 40 mg/L in terms of total polyphenols, chaff vinegar stock solution: 50 g/L, with respect to 1 mM FeCl3) to prepare reaction products in the same manner as in Example 1.
as §1

Escherichia coli = settings: 10 mM hydrogen peroxide, 1.0x10^6 cfu/mL, 10 minutes of treatment, TTC medium plate

Row | SMILES | presence or absence of luminescence [1] | ability to catalyze the Fenton reaction ([2]; reaction products with iron at optimum mixing ratios and concentrations (Example 5)) | optimum mixing concentration for ability to catalyze the Fenton reaction ([2]; with respect to 1 mM FeCl3) | sterilization effect (survival of Escherichia coli) (Escherichia coli)
1 | O=C1O[C@H]([C@@H](O)CO)C(O)=C1O [Sample 1, ascorbic acid] | blue fluorescence was observed | very high | about 0.5 mM | –
2 | OO [hydrogen peroxide] | – | – | – | a large amount of Escherichia coli survived
